Measured values as given in US20140302027A1, “METHODS OF TREATING PERIODONTAL INFLAMMATION AND PERIODONTAL BONE LOSS” (United States of America as Represented by the Secretary, …, priority 2011, published 2014).

Legend:
[1] = system: P. gingivalis (Pg)-induced bone loss; experiment: P. gingivalis-induced periodontal bone loss mouse model; format: in vivo, mice; conditions: local gingival injections (FIG. 2C)
[2] = system: Del-1 expression in human endothelial cells; experiment: Del-1 mRNA expression in HUVEC stimulated with human IL-17A; format: cell-based
From the text: FIG. 21. IL-17 downregulates Del-1 expression. (a) Gingival Del-1 mRNA expression in wild-type (WT) and IL17ra^−/− mice determined by qPCR. (b) Sagittal sections of interdental gingiva of WT and Il17ra^−/− mice were stained for Del-1; shown are representative fluorescent confocal images (upper row) and their overlays with corresponding DIC images (lower row). Bar, 50 μm; T, tooth; G, gingiva; S, sulcus. (c) The fluorescence intensities of these and additional representative images from independent mice (5 per group) were quantified using ImageJ analysis. (d) Anti-IL-17A mAb and IgG2a control were microinjected into the gingiva and Del-1 mRNA expression was determined by qPCR. (e) Gingival IL-17A mRNA expression was determined in young (8-10 weeks) and old (18 months) mice using qPCR. (f) Linear-regression analysis of Del-1 versus IL-17A expression in old mice. (g) Determination of Del-1 mRNA expression and MPO amounts in the gingiva of indicated BM chimeric mice (donor BM→lethally irradiated recipient). (h) HUVEC were stimulated with or without human IL-17A and Del-1 mRNA expression was quantified by qPCR (pooled data from four independent experiments). […]
Total RNA was extracted from excised gingival tissue or cultured cells using the PerfectPure RNA cell kit (5 Prime, Fisher) and quantified by spectrometry at 260 and 280 nm. […]

[3] = system: ligature-induced periodontal bone loss; experiment: Ligature-induced periodontitis model, periodontal bone loss; format: in vivo, mice; conditions: for inhibition of induction of bone loss relative to no-treatment: 1 μg microinjected in gingiva daily (FIG. 26a)
Procedure: FIG. 26. Inhibition of bone loss by Del-1 and other treatments that block LFA-1 or IL-17. Ligature-induced periodontal bone loss was assessed in mice treated as follows: (a) 18-month-old (left) and 10-week-old mice (right) were microinjected in the gingiva with Del-1-Fc or Fc control (1 μg) or with anti-IL-17A mAb or isotype control (1 or 10 μg). (b) WT and Itgal^−/− mice received Del-1-Fc or Fc control as above. (c) LFA878 was locally administered at an equal molar concentration with Del-1-Fc (corresponding to 8.4 ng and 1 μg, respectively) or at the indicated higher doses. (d) Anti-LFA-1 or IgG2a control were microinjected at either 1 μg, as was Del-1-Fc, or at 10 μg. (e) Del-1-Fc, anti-LFA-1, anti-ICAM-1, ICAM-1-Fc and their controls were i.v. administered at 50 μg. Data are means±SD (n=5-6 mice per group) from one of two (a,c,e) or three (b,d) independent and representative experiments. Data represent % inhibition of bone loss, which was calculated using the formula: ([Bone loss in the absence of inhibitor−Bone loss in the presence of inhibitor]/Bone loss in the absence of inhibitor)×100. *P<0.05; **P<0.01. NS, not significant.
The ligature-induced periodontitis model was used to determine the efficacy of potential therapeutic interventions (see below). Specifically, bone loss was induced by tying a 5-0 silk ligature around the maxillary left second molar, placing the ligature in the gingival sulcus; this treatment induces bone loss in conventional (but not germ-free) mice due to massive bacterial accumulation in the ligated teeth (Graves (2008)). The contralateral molar tooth in each mouse was left unligated (baseline control). Bone loss was examined 5 days after placement of the ligatures, which remained in place in all mice during the experimental period. Using the VIA-170K system, bone measurements were performed on the ligated second molar (3 sites corresponding to mesial cusp, palatal groove, and distal cusp) and the affected adjacent regions (sites corresponding to distal cusp and distal groove of the first molar, and palatal cusp of the third molar). To calculate bone loss, the 6-site total CEJ-ABC distance for the ligated side of each mouse was subtracted from the 6-site total CEJ-ABC distance of the contralateral unligated side of the same mouse.
To determine its protective efficacy in ligature-induced periodontitis, Del-1 was used in the form of a fusion protein with the Fc region of human IgG1 (Del-1-Fc) (GenScript). Del-1-Fc (1 μg) was microinjected into the palatal gingiva of the ligated second maxillary molar, one day before placement of the ligature and every day thereafter until the day before sacrifice on day 5. In other experiments, Del-1-Fc was administered systemically by i.v. injection (50 μg), following the same timing schedule as above. The same protocols were used to determine the effect of local (or systemic) administration of mAbs to LFA-1 (clone M17/4, rat IgG2a; BioLegend), ICAM-1 (clone YN1, IgG2b; Biolegend), IL-17A (clone M210, rat IgG2a; Amgen), or IL-17F (clone 316016, rat IgG2a; R&D Systems). Recombinant mouse ICAM-1 fused to the Fc region of human IgG1 (ICAM-1-Fc) as well as an LFA-1 antagonist (LFA878; kindly provided by Novartis) (Weitz-Schmidt (2004)) were also used in bone loss inhibition experiments. Purified azide-free rat IgG2a or IgG2b (BioLegend) and recombinant human IgG1 Fc (R&D Systems) were used as controls for the mAbs and Del-1-Fc, respectively.

[4] = system: human neutrophils; experiment: Transmigration assay of human neutrophils through HUVEC monolayer; format: cell-based; conditions: 5 μg/ml, towards IL-8 (20 ng/ml)
Procedure: FIG. 14. LFA-1 dependence of Del-1 deficiency-associated inflammation and bone loss. (a) Twenty-week-old C57BL/6 wild-type (WT) mice or mice deficient in the indicated molecules were assessed for bone loss relative to 5-week-old WT mice (zero baseline); the dotted line indicates the bone heights of 20-week-old WT mice for ease of comparison. (b) Sagittal sections of interdental gingiva from the same mice were stained for Ly6G; shown are representative overlays of DIC and fluorescent confocal images. (c) The fluorescence intensities of these and additional representative images from independent mice (5 per group) were quantified using ImageJ analysis. (d) Dissected gingiva from the indicated mice were processed for ELISA determination of MPO protein (left) or qPCR determination of PGRP1 transcript abundance (right). (e) Transmigration of human neutrophils through an endothelial cell monolayer (HUVEC) towards IL-8 (20 ng/ml) in the bottom well was determined with or without soluble human Del-1 (5 μg/ml), BSA (5 μg/ml), anti-LFA-1 mAb (10 μg/ml) or IgG1 control (10 μg/ml). […]
Transmigration assays were performed as previously described (Ley (2007)), using 6.5-mm Transwells with an 8-μm pore size (Corning). […] After 60 min incubation at 37° C., the number of transmigrated cells in the lower compartment was measured (Ley (2007)). […]

## O=C(NCc1cccc(O)c1)c1cc(Cl)c(C(=O)N[C@@H](CNC(=O)c2cc(O)cc(O)c2)C(=O)O)c(Cl)c1 [XVA143]
[1]
  P. gingivalis (Pg)-induced bone loss: inhibited

## human IL-17A: human IL-17A cytokine used to stimulate HUVEC
[2]
  Del-1 expression in human endothelial cells (HUVEC): inhibited

## Del-1-Fc: Del-1 as a fusion protein with the Fc region of human IgG1 (GenScript); SEQ ID NO: 5
[3]; 10-week-old mice
  inhibition of induction of bone loss relative to no-treatment: ≈ 80%
[3]; 18-month old mice, microinjected in palatal gingiva daily from day -1 to day 4 (FIG. 7)
  inhibition of bone loss: significant inhibition of bone loss
[3]; 18-month-old mice
  inhibition of induction of bone loss relative to no-treatment: inhibited
[3]; Itgal−/− mice (LFA-1 deficient), local (FIG. 26b)
  effect against bone loss: minor, but not statistically significant, effect
[3]; given locally or systemically
  potency in inhibiting periodontal bone loss versus other LFA-1-ICAM-1 inhibitors: more potent

## CC[C@H](C)C(=O)O[C@H]1C[C@@H](C)C=C2C=C[C@H](C)[C@H](CC[C@@H]3C[C@H](CC(=O)NC)N(Cc4ccc(O)c(OC)c4)C(=O)O3)[C@H]21 [LFA878, reference compound]
[3]; local, equal molar amounts (8.4 ng vs 1 μg Del-1-Fc) (FIG. 26c)
  protection against bone loss compared with Del-1-Fc: less protective than Del-1-Fc
[3]; locally administered at 1 μg (FIG. 26c)
  protection against bone loss compared with Del-1-Fc: almost (but not quite) comparable to Del-1-Fc

B1: human Del-1: soluble human Del-1 from R&D Systems; human Del-1 amino acid sequence SEQ ID NO: 1 (protein, listed as Homo sapiens)
chain: MKRSVAVWLLVGLSLSVPQFGKGDICDPNPCENGGICLPGLADGSFSCECPDGFTDPNCSSVVEVASDEEEPTSAGPCTPNPCHNGGTCEISEAYRGDTFIGYVCKCPRGFNGIHCQHNINECEVEPCKNGGICTDLVANYSCECPGEFMGRNCQYKCSGPLGIEGGIISNQQITASSTHRALFGLQKWYPYYARLNKKGLINAWTAAENDRWPWIQINLQRKMRVTGVITQGAKRIGSPEYIKSYKIAYSNDGKTWAMYKVKGTNEDMVFRGNIDNNTPYANSFTPPIKAQYVRLYPQVCRRHCTLRMELLGCELSGCSEPLGMKSGHIQDYQITASSIFRTLNMDMFTWEPRKARLDKQGKVNAWTSGHNDQSQWLQVDLLVPTKVTGIITQGAKDFGHVQFVGSYKLAYSNDGEHWTVYQDEKQRKDKVFQGNFDNDTHRKNVIDPPIYARHIRILPWSWYGRITLRSELLGCTEEE
[4]
  LFA-1-dependent transendothelial migration of human neutrophils: inhibited
